Data published in PMC11973759 (Journal for Immunotherapy of Cancer, 2025).

System: M2 macrophages
Assay type: cell-based, human
Conditions: inhibitor 30 min, TB511 1 µM 1 h, 24 h fresh medium, n=3

SMILES | Effect of inhibitor on TB511-induced apoptosis (CCK8)
CN(C)CCCN1c2ccccc2Sc2ccc(Cl)cc21 [CPZ, chlorpromazine] | decreasing TB511-induced apoptosis
C=C1[C@@H](C)[C@H]2[C@H](Cc3ccccc3)NC(=O)[C@]23[C@H](OC(C)=O)/C=C/[C@@](C)(O)C(=O)[C@@H](C)C/C=C/[C@H]3[C@@H]1O [CyD, cytochalasin D] | decreasing TB511-induced apoptosis
